Tests used:
CXCR2 = target: T1, CXCR2 (Homo sapiens, UniProt P25025); test: [125I]-hIL-8 competition binding (SPA) on membranes of cells expressing human CXCR2; details: receptor binding, [125I]-hIL-8, RT for 4 h
T1 construct: cultured under geneticin/G418 selection; membranes
T1 sequence (P25025 1-360): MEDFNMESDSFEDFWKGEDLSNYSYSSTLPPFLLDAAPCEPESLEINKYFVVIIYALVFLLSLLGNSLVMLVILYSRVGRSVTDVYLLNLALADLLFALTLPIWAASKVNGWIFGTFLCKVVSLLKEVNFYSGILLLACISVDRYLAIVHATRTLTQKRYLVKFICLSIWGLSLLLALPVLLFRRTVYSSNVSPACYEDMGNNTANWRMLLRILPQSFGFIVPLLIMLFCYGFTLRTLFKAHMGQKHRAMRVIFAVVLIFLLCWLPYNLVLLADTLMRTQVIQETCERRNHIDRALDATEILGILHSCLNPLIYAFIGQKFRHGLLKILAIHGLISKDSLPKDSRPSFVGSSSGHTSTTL
Experimental: Recombinant human fractalkine (hCX3CL1) and recombinant human interleukin-8 (IL-8 or hCXCL8) were purchased from PeproTech Inc., UK. Recombinant [^125I]-fractalkine (human) and [^125I] hIL-8 with the specific activity of 2200 Ci/mmol, was purchased from NEN® Life Science Products, Inc., UK. Fluo4-AM was purchased from Molecular Probes, US. All other chemicals were of analytical grade.
Cells expressing human CXCR2 obtained from AstraZeneca Charnwood are cultured in EMEM containing Glutamax and supplemented with 10% FBS (from PAA, Austria), 1% non-essential amino acids (NEAA), 100 U/mL penicillin and 100 μg/mL streptomycin (PEST) and 500 μg/mL geneticin/G418.
Cells are grown at 37° C. and 5% CO2 and harvested at 60-80% confluence in buffer containing 10 mM Tris-HCl pH 7.4, 5 mM EDTA, 0.1 mg/mL bacitracin. The cells are centrifuged at 300×g for 10 min and the pellet is resuspended in harvesting buffer (10 mM Tris-HCl, pH 7.4, 5 mM ethylenediaminetetra-aceticacid (EDTA) and 0.1 mg/mL bacitracin), pooled and homogenised using a Dounce homogeniser. The homogenate is centrifuged in 48000×g for 10 min and resuspended in harvesting buffer using Ultra-Turrax T8. Membrane aliquots are stored at −80° C. Protein concentration was determined in microtiter plates as described by Harrington (1990, Anal. Biochem. 186, 285-287).
The [^125I]-hIL-8 competition binding studies are performed in singlicates in white clear bottom 96-well isoplates with a final volume of 200 μL and each well contains 150 pM [^125I]-hIL-8 (specific activity 2200 Ci/mmol), membrane-SPA preparation equivalent to 20 pM receptors and 1.5 mg SPA-beads in assay buffer [50 mM HEPES-KOH pH 7.4, 10 mM MgCl2, 1 mM EDTA, 0.5% (w/v) gelatin]. The test compounds were treated as above. The non-specific binding is determined in the presence of 500 nM unlabelled hIL-8. The agonist hIL-8 (a concentration-response curve from 3 pM to 30 nM), is used as reference compound at each test occasion. […] The binding reaction is started by addition of 140 μL membrane-SPA preparation, and the samples are incubated in dark at RT for 4 h. Assay plates are counted in a liquid scintillation counter (Wallac MicroBeta® TriLux 1450 from PerkinElmer, USA).

CX3CR1 = target: T2, CX3CR1 (Homo sapiens, UniProt P49238); test: [125I]-fractalkine competition receptor binding assay on hCX3CR1 membranes; details: 25° C. for 24 h
T2 construct: expressed in transfected cells; host or cells: human embryonic kidney suspension (HEKS) 293 cell line stably expressing chimeric G-protein Gαqi5; membranes
T2 sequence (P49238 1-355): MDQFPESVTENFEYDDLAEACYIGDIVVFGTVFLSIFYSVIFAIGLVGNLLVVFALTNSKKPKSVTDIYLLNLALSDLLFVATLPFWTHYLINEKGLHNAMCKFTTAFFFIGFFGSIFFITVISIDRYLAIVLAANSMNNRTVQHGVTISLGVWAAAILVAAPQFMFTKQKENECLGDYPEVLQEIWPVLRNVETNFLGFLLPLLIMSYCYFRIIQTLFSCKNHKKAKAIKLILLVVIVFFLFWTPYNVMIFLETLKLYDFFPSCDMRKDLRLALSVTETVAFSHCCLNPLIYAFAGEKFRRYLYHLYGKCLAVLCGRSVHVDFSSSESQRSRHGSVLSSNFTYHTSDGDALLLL
From the text: Recombinant human fractalkine (hCX3CL1) and recombinant human interleukin-8 (IL-8 or hCXCL8) were purchased from PeproTech Inc., UK. […] Fluo4-AM was purchased from Molecular Probes, US. All other chemicals were of analytical grade.
The complete human CX3CR1 cDNA (GenBank accession number U20350) was extracted from human brain mRNA (Superscript, Life Technologies) and ligated into pCR-Blunt II TOPO vector (InVitrogen). The insert corresponding hCX3CR1 was isolated and further subcloned into pcDNA3.1zeo. Plasmid DNA was prepared using Plasmid Midi Kit (Qiagen). […] A stable clone was generated utilizing zeocin (500 μg/mL) and hygromycin (100 μg/mL) selection. For further applications the cells were maintained in Dulbecco's modified Eagle's medium/Ham's nutrient mix F12 (DMEM/F12) containing pyridoxine and supplemented with 10% (v/v) fetal bovine serum, 2 mM L-glutamine, 100 U/ml penicillin and 100 mg/ml streptomycin, 250 μg/mL zeocin and 100 μg/mL hygromycin.
Ten concentrations (2 points/log unit) of the test compounds were pre-dissolved in DMSO and added to reach a final concentration of 1% (v/v) DMSO. The assay was initiated with the addition of membranes and incubated at 25° C. for 24 h. The reactions were stopped by rapid filtration through Whatman GF/B glass fiber filters pretreated with 0.3% polyethylimine and subsequent washing with ice-cold buffer (10 mM Hepes-KOH pH 7.4, 500 mM NaCl) using a Brandel receptor binding harvester. Scintillation cocktail was addedand radioactivity was determined in a Packard 2500TR liquid scintillation counter. (Perkin Elmer, USA)

| SMILES | Ki (CXCR2) [nM] | Ki (CX3CR1) [nM] |
| --- | --- | --- |
| CCC(Sc1nc(N[C@@H](CO)CC(C)C)c2sc(N)nc2n1)c1ccccc1 (stereo partly drawn) | 2760 | 3.1 |
| CC(C)C[C@H](CO)Nc1nc(SC(C)c2ccccc2)nc2nc(N)sc12 (stereo partly drawn) | 3430 | 3.8 |
| CC(C)C[C@H](CO)Nc1nc(SC(C)c2ccccc2Cl)nc2nc(N)sc12 (stereo partly drawn) | 5650 | 5.9 |
| CC(C)C[C@H](CO)Nc1nc(S[C@@H](C)c2cccc(C#N)c2)nc2nc(N)sc12 | 4210 | 14 |

Stronger by Ki (CXCR2), values ahead:

| Ki (CXCR2) [nM] | Ki (CX3CR1) [nM] | SMILES |
| --- | --- | --- |
| 1980 | 156 | CC(C)C[C@H](CO)Nc1nc(SCc2cccc(C#N)c2)nc2nc(N)sc12 [reference compound] |
| 1810 | 51 | CC(C)C[C@H](CO)Nc1nc(SCc2ccccc2Cl)nc2nc(N)sc12 [reference compound] |
| 1140 | 52 | CCC[C@H](CO)Nc1nc(S[C@@H](C)c2ccccc2)nc2nc(N)sc12 |
| 540 | 592 | CCC[C@H](CO)Nc1nc(SCc2ccccc2)nc2nc(N)sc12 [reference compound] |
| 531 | 48 | CC(C)C[C@H](CO)Nc1nc(SCc2ccccc2)nc2nc(N)sc12 [reference compound] |

Source: US9440992B2, “5,7-disubstituted thiazolo[4,5-D]pyrimidines as chemokine inhibitors” (Acturum Life Science AB, priority 2005, dated 2016)
